# Source: patent publication US20060178513A1, “Pyridinylanilides” (priority 2003, published 2006)
# Where two headings read alike, the source gives them in different places.
# Key:
# [1] = tested on: Podosphaera leucotricha; assay: Podosphaera test (apple)/protective; assay type: in vivo; conditions: topical, 240 h, apple plants, protective, application rate 100 g/ha, evaluation 10 days after inoculation, read-out: Efficacy in %
# Protocol: (§1) [table] To produce a suitable preparation of active compound, 1 part by weight of active compound is mixed with the stated amounts of solvent and emulsifier, and the concentrate is diluted with water to the desired concentration. To test for protective activity, young plants are sprayed with the preparation of active compound at the stated application rate. After the spray coating has dried on, the plants are inoculated with an aqueous spore suspension of the apple mildew pathogen Podosphaera leucotricha. The plants are then placed in a greenhouse at about 23° C. and a relative atmospheric humidity of about 70%. Evaluation is carried out 10 days after the inoculation. 0% means an efficacy which corresponds to that of the control, whereas an efficacy of 100% means that no infection is observed.
# [2] = logP determination by HPLC (reversed-phase C 18), EEC Directive 79/831 Annex V.A8; assay type: physicochemical
# Protocol: The logP values given in the Preparation Examples were determined in accordance with EEC Directive 79/831 Annex V.A8 by HPLC (High Performance Liquid Chromatography) using a reversed-phase column (C 18). Temperature: 43° C. Mobile phases for the determination in the acidic range: 0.1% aqueous phosphoric acid, acetonitrile; linear gradient from 10% acetonitrile to 90% acetonitrile. Calibration was carried out using straight-chain alkan-2-ones (having 3 to 16 carbon atoms) with known logp values (determination of the logp values by the retention times using linear interpolation between two successive alkanones).
# [3] = tested on: Puccinia recondita; assay: Puccinia test (wheat)/protective; assay type: in vivo; conditions: wheat plants, protective, application rate 500 g/ha, evaluation 10 days after inoculation
# Protocol: as §1, with “sprayed” for “inoculated”, “a conidia” for “an aqueous spore”, “Puccinia recondita. The plants remain in an incubation cabin at 20° C. and 100% relative atmospheric humidity for 48 hours.” for “the apple mildew pathogen Podosphaera leucotricha.”, “a temperature of approximately 20°” for “about 23°”, “80% to promote the development of rust pustules.” for “about 70%.”
# [4] = tested on: Pyrenophora teres; assay: Pyrenophora teres test (barley)/protective; assay type: in vivo; conditions: barley plants, protective, application rate 500 g/ha, evaluation 8 days after inoculation
# Protocol: [table] To produce a suitable preparation of active compound, 1 part by weight of active compound is mixed with the stated amount of solvent and emulsifier, and the concentrate is diluted with water to the desired concentration. To test for protective activity, young plants are sprayed with the preparation of active compound at the stated application rate. After the spray coating has dried on, the plants are sprayed with a conidia suspension of Pyrenophora teres. The plants remain in an incubation cabin at 20° C. and 100% relative atmospheric humidity for 48 hours. The plants are then placed in a greenhouse at a temperature of about 20° C. and a relative atmospheric humidity of about 80%. Evaluation is carried out 8 days after the inoculation. 0% means an efficacy which corresponds to that of the control, whereas an efficacy of 100% means that no infection is observed.
# [5] = tested on: Alternaria solani; assay: Alternaria test (tomato)/protective; assay type: in vivo; conditions: tomato plants, protective, application rate 750 g/ha, evaluation 7 days after inoculation
# Protocol: [table] To produce a suitable preparation of active compound, 1 part by weight of active compound is mixed with the stated amounts of solvent and emulsifier, and the concentrate is diluted with water to the desired concentration. To test for protective activity, young tomato plants are sprayed with the preparation of active compound at the stated application rate. 1 day after the treatment, the plants are inoculated with a spore suspension of Alternaria solani and then remain at 100% rel. humidity and 20° C. for 24 h. The plants then remain at 96% rel. atmospheric humidity and a temperature of 20° C. Evaluation was carried out 7 days after the inoculation. 0% means an efficacy which corresponds to that of the control, whereas an efficacy of 100% means that no infection is observed.
# [6] = tested on: Venturia inaequalis; assay: Venturia Test (Apple)/protective; assay type: in vivo; conditions: topical, 240 h, apple plants, protective, application rate 100 g/ha, evaluation 10 days after inoculation, read-out: Efficacy in %
# Protocol: [table] To produce a suitable preparation of the active compound, 1 part by weight of active compound is mixed with the stated amounts of solvents and emulsifier, and the concentrate is diluted with water to the desired concentration. To test for protective activity, young plants are sprayed with the preparation of active compound at the stated application rate. After the spray coating has dried on, the plants are inoculated with an aqueous conidia suspension of the apple scab pathogen Venturia inaequalis and then remain in an incubation cabin at about 20° C. and 100% relative atmospheric humidity for 1 day. The plants are then placed in a greenhouse at about 21° C. and a relative atmospheric humidity of about 90%. Evaluation is carried out 10 days after the inoculation. 0% means an efficacy which corresponds to that of the control, whereas an efficacy of 100% means that no infection is observed.
# [7] = reversed-phase HPLC column (C 18), HPLC, reversed-phase C 18, 43° C., acidic range (0.1% aqueous phosphoric acid/acetonitrile), read-out: logP
# [8] = reversed-phase HPLC column (C 18), pH 2.3, HPLC, reversed-phase C 18, 43° C., read-out: log P (pH 2.3)
Structure (SMILES),"chromatographic logP [2, 7]",pest or weed control at 100 g/ha [1] [%],pest or weed control at 100 g/ha [6] [%],also measured
Cn1cc(C(=O)Nc2ccccc2-c2ccc(Cl)nc2)c(C(F)F)n1 [1-6-7],2.1,98,–,–
Cn1nc(C(F)(F)F)c(C(=O)Nc2ccccc2-c2cc(Cl)nc(Cl)c2)c1F [1-7-9],–,–,100,–
Cc1nc(C(F)(F)F)c(C(=O)Nc2ccccc2-c2cc(Cl)nc(Cl)c2)s1 [1-7-10],3.27,100,100,Efficacy in % [5]: 100%
Cc1nn(C)c(F)c1C(=O)Nc1ccccc1-c1ccc(Cl)cn1 [1-8-11],3.06,95,100,–
Cn1cc(C(=O)Nc2ccccc2-c2ccc(Cl)cn2)c(C(F)F)n1 [1-8-14],3.05,–,100,Efficacy in % [4]: 94%
O=C(Nc1ccccc1-c1ncc(C(F)(F)F)cc1Cl)C1=C(C(F)(F)F)OCCS1 [1-8-25],3.43,–,99,–
Cc1nc(C(F)(F)F)c(C(=O)Nc2ccccc2-c2ncc(C(F)(F)F)cc2Cl)s1 [1-8-28],3.48,96,98,–
Cn1cc(C(=O)Nc2ccccc2-c2ncc(C(F)(F)F)cc2Cl)c(C(F)(F)F)n1 [1-8-29],3.13,–,98,–
"Nc1ccccc1-c1ncc(C(F)(F)F)cc1Cl [III-1, 2-[3-chloro-5-(trifluoromethyl)-2-pyridinyl]aniline]",–,–,–,"chromatographic logP [2, 8]: 2.79"
"CO/N=C/c1ccc(-c2ccccc2N)nc1 [III-2, 6-(2-amino-phenyl)-pyridine-3-carbaldehyde (E)-O-methyl-oxime]",–,–,–,"chromatographic logP [2, 8]: 1.59"
O=C(Nc1ccccc1I)c1ccccc1C(F)(F)F [IV-1],–,–,–,"chromatographic logP [2, 8]: 2.98"
"CO/N=C/c1ccc(Br)nc1 [VII-1, 6-bromo-pyridine-3-carbaldehyde (E)-O-methyl-oxime]",–,–,–,chromatographic logP ([2]; pH 2.3): 2.16

# Continued, in another order:
"chromatographic logP [2, 7]",Structure (SMILES),pest or weed control at 100 g/ha [1] [%],pest or weed control at 100 g/ha [6] [%],also measured
2.02,Cc1nn(C)c(F)c1C(=O)Nc1ccccc1-c1ccnc(Br)c1 [1-7-4],–,–,Efficacy in % [3]: 100%; Efficacy in % [4]: 93%
2.85,O=C(Nc1ccccc1-c1ccnc(Br)c1)c1ccccc1C(F)(F)F [1-7-5],–,–,Efficacy in % [4]: 93%
2.13,Cn1cc(C(=O)Nc2ccccc2-c2ccnc(Br)c2)c(C(F)F)n1 [1-7-6],–,–,Efficacy in % [3]: 100%; Efficacy in % [5]: 95%; Efficacy in % [4]: 93%
3.59,O=C(Nc1ccccc1-c1ncc(C(F)(F)F)cc1Cl)c1ccccc1C(F)(F)F [1-8-1],100,100,"Efficacy in % [3]: 100%; chromatographic logP [2, 8]: 3.58"
3.44,Cc1occc1C(=O)Nc1ccccc1-c1ncc(C(F)(F)F)cc1Cl [1-8-2],–,–,Efficacy in % [3]: 100%; Efficacy in % [5]: 100%; Efficacy in % [4]: 100%
3.83,Cc1ccsc1C(=O)Nc1ccccc1-c1ncc(C(F)(F)F)cc1Cl [1-8-3],100,100,Efficacy in % [3]: 100%; Efficacy in % [5]: 95%; Efficacy in % [4]: 100%
4.13,O=C(Nc1ccccc1-c1ccc(C(F)(F)F)cn1)c1ccccc1C(F)(F)F [1-8-9],97,–,Efficacy in % [5]: 95%
2.95,O=C(Nc1ccccc1-c1ccc(Cl)cn1)c1cccnc1Cl [1-8-10],100,100,Efficacy in % [3]: 94%; Efficacy in % [4]: 100%
4,O=C(Nc1ccccc1-c1ccc(Cl)cn1)c1ccccc1C(F)(F)F [1-8-12],92,100,–
2.95,"CON=Cc1ccc(-c2ccccc2NC(=O)c2cccnc2Cl)nc1 [1-8-15, 2-chloro-N-{2-[5-(E)methoxyimino-methyl)-pyridin-2-yl]-phenyl}-nicotinamide]",–,–,"chromatographic logP [2, 8]: 2.95"
3.45,O=C(Nc1ccccc1-c1ncc(C(F)(F)F)cc1Cl)c1ccccc1Cl [1-8-20],100,–,–
3.49,O=C(Nc1ccccc1-c1ncc(C(F)(F)F)cc1Cl)c1ccccc1Br [1-8-21],100,–,–
2.91,Cn1cc(C(=O)Nc2ccccc2-c2ncc(C(F)(F)F)cc2Cl)c(C(F)F)n1 [1-8-27],97,100,–
2.92,Cn1cc(C(=O)Nc2ccccc2-c2ncc(C(F)(F)F)cc2Cl)c(I)n1 [1-8-30],–,92,–
